Experimental data published in BindingDB's records for doi:10.1016/j.bmcl.2010.10.033 (Glaxosmithkline, 2010).

Test: Antagonist activity at CCR5 in HOS cells assessed as inhibition of HIV-1 Ba-L infection

Structure (SMILES) | IC50 [nM]
C=CCN(C(=O)Nc1ccc(F)cc1)C1CCN(CCC2(c3cccc(F)c3)CCN(C(=O)c3cc(S(=O)(=O)NC(C)(C)C)c(F)cc3Cl)CC2)CC1 [5-(4-(2-(4-(1-allyl-3-(4-fluorophenyl)ureido)piperidin-1-yl)ethyl)-4-(3-fluorophenyl)piperidine-1-carbonyl)-N-tert-butyl-4-chloro-2-fluorobenzenesulfonamide] | 34
C=CCN(C(=O)OCc1ccc(C#N)cc1)C1CCN(CCC2(c3cccc(F)c3)CCN(C(=O)c3cc(S(=O)(=O)NC(C)(C)C)c(F)cc3Cl)CC2)CC1 [4-cyanobenzyl allyl(1-(2-(1-(5-(N-tert-butylsulfamoyl)-2-chloro-4-fluorobenzoyl)-4-(3-fluorophenyl)piperidin-4-yl)ethyl)piperidin-4-yl)carbamate] | 4.5
C=CCN(C(=O)OCc1ccc(OC(F)(F)F)cc1)C1CCN(CCC2(c3cccc(F)c3)CCN(C(=O)c3cc(S(=O)(=O)NC(C)(C)C)c(F)cc3Cl)CC2)CC1 [4-(trifluoromethoxy)benzyl allyl(1-(2-(1-(5-(N-tert-butylsulfamoyl)-2-chloro-4-fluorobenzoyl)-4-(3-fluorophenyl)piperidin-4-yl)ethyl)piperidin-4-yl)carbamate] | 27
C=CCN(C(=O)Cc1ccc(F)cc1)C1CCN(CCC2(c3cccc(F)c3)CCN(C(=O)c3cc(S(=O)(=O)NC(C)(C)C)c(F)cc3Cl)CC2)CC1 [N-allyl-N-(1-(2-(1-(5-(N-tert-butylsulfamoyl)-2-chloro-4-fluorobenzoyl)-4-(3-fluorophenyl)piperidin-4-yl)ethyl)piperidin-4-yl)-2-(4-fluorophenyl)acetamide] | 52
C=CCN(C(=O)NCc1ccc(C(N)=O)cc1)C1CCN(CCC2(c3cccc(F)c3)CCN(C(=O)c3cc(S(=O)(=O)NC(C)(C)C)c(F)cc3Cl)CC2)CC1 [4-((3-allyl-3-(1-(2-(1-(5-(N-tert-butylsulfamoyl)-2-chloro-4-fluorobenzoyl)-4-(3-fluorophenyl)piperidin-4-yl)ethyl)piperidin-4-yl)ureido)methyl)benzamide] | 3100
C=CCN(C(=O)OCc1ccc(F)cc1)C1CCN(CCC2(c3cccc(F)c3)CCN(C(=O)c3cc(S(=O)(=O)NC(C)(C)C)c(F)cc3Cl)CC2)CC1 [4-fluorobenzyl allyl(1-(2-(1-(5-(N-tert-butylsulfamoyl)-2-chloro-4-fluorobenzoyl)-4-(3-fluorophenyl)piperidin-4-yl)ethyl)piperidin-4-yl)carbamate] | 22
C=CCN(C(=O)OCc1ccc(C(=O)OC)cc1)C1CCN(CCC2(c3cccc(F)c3)CCN(C(=O)c3cc(S(=O)(=O)NC(C)(C)C)c(F)cc3Cl)CC2)CC1 [methyl 4-((allyl(1-(2-(1-(5-(N-tert-butylsulfamoyl)-2-chloro-4-fluorobenzoyl)-4-(3-fluorophenyl)piperidin-4-yl)ethyl)piperidin-4-yl)carbamoyloxy)methyl)benzoate] | 41
C=CCN(C(=O)Cc1ccc(C(N)=O)cc1)C1CCN(CCC2(c3cccc(F)c3)CCN(C(=O)c3cc(S(=O)(=O)NC(C)(C)C)c(F)cc3Cl)CC2)CC1 [4-(2-(allyl(1-(2-(1-(5-(N-tert-butylsulfamoyl)-2-chloro-4-fluorobenzoyl)-4-(3-fluorophenyl)piperidin-4-yl)ethyl)piperidin-4-yl)amino)-2-oxoethyl)benzamide] | 210
C=CCN(C(=O)Nc1ccc(OC(C)=O)cc1)C1CCN(CCC2(c3cccc(F)c3)CCN(C(=O)c3cc(S(=O)(=O)NC(C)(C)C)c(F)cc3Cl)CC2)CC1 [4-(3-allyl-3-(1-(2-(1-(5-(N-tert-butylsulfamoyl)-2-chloro-4-fluorobenzoyl)-4-(3-fluorophenyl)piperidin-4-yl)ethyl)piperidin-4-yl)ureido)phenyl acetate] | 60
C=CCN(C(=O)Cc1ccc(S(C)(=O)=O)cc1)C1CCN(CCC2(c3cccc(F)c3)CCN(C(=O)c3cc(S(=O)(=O)NC(C)(C)C)c(F)cc3Cl)CC2)CC1 [N-allyl-N-(1-(2-(1-(5-(N-tert-butylsulfamoyl)-2-chloro-4-fluorobenzoyl)-4-(3-fluorophenyl)piperidin-4-yl)ethyl)piperidin-4-yl)-2-(4-(methylsulfonyl)phenyl)acetamide] | 65
